Test results reported in ChEMBL document CHEMBL1201862, “PubChem BioAssay data set” (2004).
Calls of active or inactive are those of the source.

Columns and labels:
[1] = inhibitors of firefly luciferase expression or activity, dose response, H4 neuroglioma cells, luminescence (AID 1990); assay type: functional, cell-based
[2] = Luminescence Cell-Based Dose Response HTS to Identify Inhibitors of 5'UTR Stem-Loop Driven Prion Protein mRNA Translation in H4 Neuroglioblastoma Cells. [Related pubchem assays: 1827 (Project Summary), 1813 (Primary HTS)]; assay type: functional
[3] = inhibitors of SNCA 5'UTR-driven reporter translation, confirmation, H4 neuroglioma cells, luminescence (AID 1988); assay type: functional, cell-based
INS1 = test: beta cell apoptosis inhibitors, cytokine rescue, dose response, luminescence, retest (AID 449756); assay type: functional, cell-based; conditions: Rattus norvegicus, INS1;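 also: cell death triggered by IL-1 beta plus TNF-alpha plus IFN-gamma mixture; protective hits raise ATP signal compared with cytokine alone wells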
cells [4] = assay type: functional, cell-based
cells [5] = assay type: functional, cell-based; remark: listed apart in the source
[6] = Shn3 3'UTR reporter inhibitors, dose response, cell-based, Clone20 osteoblasts, firefly luciferase, cherry-picked (AID 624132); assay type: functional;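 also: firefly luciferase luminescence from reporter carrying the Shn3 3'UTR in osteoblasts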
[7] = HepG2 cell cytotoxicity, dose response, cytotoxicity control for Shn3 inhibitor project, CellTiter-Glo, cherry-picked (AID 624134); assay type: functional, cell-based
[8] = control 3'UTR Renilla luciferase suppression, dose response, counter-screen for Shn3 inhibitor project, cell-based, Clone20-Shn3RL, cherry-picked (AID 624133); assay type: functional
[9] = molecular target: T1, Heat shock factor protein 1 (Mus musculus, UniProt P38532); test: inhibition of MG132-induced HSE-luciferase signal, confirmation, cell-based, NIH3T3, luminescence, dose retest (AID 2382); assay type: functional;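 also: NIH3T3 fibroblasts with HSF1-driven luciferase reporter stressed by proteasome inhibitor MG132; luminescence from HSF1-driven luciferase expression after 8 hours of MG132 stress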
T1 sequence (P38532 whole entry): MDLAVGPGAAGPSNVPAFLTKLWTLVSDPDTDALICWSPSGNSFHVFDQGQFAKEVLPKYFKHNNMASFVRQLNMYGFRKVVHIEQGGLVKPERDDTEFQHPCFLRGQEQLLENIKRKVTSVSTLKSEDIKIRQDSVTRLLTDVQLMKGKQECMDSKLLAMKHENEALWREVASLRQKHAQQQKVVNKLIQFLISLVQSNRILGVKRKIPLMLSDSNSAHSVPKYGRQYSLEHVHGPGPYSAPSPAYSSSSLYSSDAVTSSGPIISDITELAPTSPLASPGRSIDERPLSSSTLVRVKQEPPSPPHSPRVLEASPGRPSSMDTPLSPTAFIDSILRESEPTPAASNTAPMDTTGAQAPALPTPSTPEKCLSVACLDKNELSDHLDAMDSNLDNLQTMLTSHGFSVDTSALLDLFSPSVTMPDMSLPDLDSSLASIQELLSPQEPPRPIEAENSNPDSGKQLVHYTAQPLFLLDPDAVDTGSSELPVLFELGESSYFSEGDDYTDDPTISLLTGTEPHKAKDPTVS

[10] = HEp-2 cell cytotoxicity, dose response, cytotoxicity control for RSV inhibitor project, HTS (AID 2410); assay type: functional; conditions: human respiratory syncytial virus
Paired box protein Pax-8 = Paired box protein Pax-8 (Homo sapiens, UniProt Q06710); test: inhibitors of PAX8-driven TPO luciferase reporter, dose response, RMG-I cells, cherry-pick (AID 687027); assay type: functional, cell-based;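 also: luciferase reporter driven by Pax8 target thyroperoxidase promoter measured by SteadyGlo luminescence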
Paired box protein Pax-8, sequence (Q06710 whole entry): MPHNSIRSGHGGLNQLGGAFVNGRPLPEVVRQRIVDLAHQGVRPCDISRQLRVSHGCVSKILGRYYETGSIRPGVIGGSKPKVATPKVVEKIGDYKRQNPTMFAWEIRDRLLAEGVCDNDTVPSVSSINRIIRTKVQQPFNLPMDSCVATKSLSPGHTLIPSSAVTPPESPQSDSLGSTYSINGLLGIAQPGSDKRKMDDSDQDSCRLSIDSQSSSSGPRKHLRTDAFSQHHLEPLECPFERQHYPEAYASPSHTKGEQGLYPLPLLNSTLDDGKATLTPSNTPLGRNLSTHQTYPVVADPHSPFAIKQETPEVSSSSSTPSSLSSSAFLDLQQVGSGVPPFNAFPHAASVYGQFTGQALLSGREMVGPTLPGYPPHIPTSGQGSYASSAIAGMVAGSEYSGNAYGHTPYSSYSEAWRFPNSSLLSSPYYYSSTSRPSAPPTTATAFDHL

SMILES: COc1ccc(-c2nnc(NC(=O)c3ccc4c(c3)OCCO4)o2)cc1
- EC50 [1]: > 120 µM (not active)
- EC50 [2]: > 120 µM (not active)
- EC50 [3]: > 120 µM (not active)

SMILES: COC(=O)c1sccc1S(=O)(=O)Nc1ccc(N2CCCCC2)cc1
- AC50 (INS1): 29 µM (active)

SMILES: O=C(NCc1cccnc1)Nc1ccc([N+](=O)[O-])cc1
- AC50 (INS1): 11.8 µM (active)

SMILES: COc1ccc(OC)c(Nc2nc(NCCC(C)C)nc(N)c2[N+](=O)[O-])c1
- EC50 (cells [4]): > 350 µM (not active)
- EC50 (cells [5]): > 350 µM (not active)

SMILES: CCN(CC)S(=O)(=O)c1ccc(C)c(NC(=S)N2CCN(C/C=C/c3ccccc3)CC2)c1
- AC50 [6]: 2.55 µM (active)
- AC50 [7]: 67.5 µM (active)
- AC50 [8]: 2.53 µM (active)

SMILES: CCOc1ccc(C2N(c3ccc(F)cc3)C(=O)C3CCCN32)cc1OC (centres undefined)
- EC50 [9]: > 195 µM (not active)

SMILES: COc1ccc(OCC(=O)NNC(=S)NC(=O)c2ccc(Br)o2)cc1
- AC50 [6]: 5.27 µM (active)
- AC50 [7]: > 70 µM (inactive)
- AC50 [8]: 12.4 µM (active)

SMILES: Cc1c(C(=O)NCc2ccc3c(c2)OCO3)oc2ccc(Br)cc12
- CC50 [10]: 19.1 µM (active)

SMILES: CCCCN(C(=O)c1ccc([N+](=O)[O-])s1)c1c(N)n(CCCC)c(=O)[nH]c1=O
- EC50 [9]: > 195 µM (not active)

SMILES: CC(=O)c1c(N2CCN(CCO)CC2)nc(=S)n(-c2ccccc2)c1C
- EC50 [9]: > 195 µM (not active)

SMILES: COc1cc(C(=O)NC2CCCc3c2cnn3-c2ccccc2F)cc(OC)c1OC (centres undefined)
- AC50 [6]: 0.781 µM (active)
- AC50 [7]: 6.29 µM (active)
- AC50 [8]: 4.13 µM (active)

SMILES: CCOc1ccc(Oc2nc(NCC(C)C)nc(N(C)C)n2)nn1
- EC50 [1]: 115 µM (active)
- EC50 [2]: > 120 µM (not active)
- EC50 [3]: > 120 µM (not active)

SMILES: CO/C(O)=C1/C(C)=Nc2c(c(=O)n(C)c(=O)n2C)C1c1cccc(O)c1 (centres undefined)
- EC50 [9]: 27.8 µM (active)

SMILES: COC(=O)C1=C(N)Oc2cc(N(C)C)ccc2C1c1ccccc1OC (centres undefined)
- EC50 [1]: 11.3 µM (active)
- EC50 [3]: 6.94 µM (active)

SMILES: CCCC(=O)C1=C(NCc2ccccc2)CC(C)(C)CC1=O
- EC50 (cells [4]): > 350 µM (not active)
- EC50 (cells [5]): > 350 µM (not active)

SMILES: CCO[C@@H]1OC(C(=O)NCc2ccccc2)=C[C@H](c2ccc3c(c2)OCO3)[C@H]1CCCO
- EC50 [9]: > 195 µM (not active)

SMILES: CCOC(=O)c1c(N)n(CCCOC(=O)c2ccco2)c2nc3ccccc3nc12
- EC50 [1]: > 120 µM (not active)
- EC50 [2]: > 120 µM (not active)
- EC50 [3]: 8.24 µM (active)

SMILES: Cc1c(C(=O)C(=O)NCc2cccs2)c2ccccc2n1C
- EC50 [9]: > 195 µM (not active)

SMILES: Cc1cc(C)[n+](Cc2ccccc2)cc1C(N)=O
- EC50 (cells [4]): > 350 µM (not active)
- EC50 (cells [5]): > 350 µM (not active)

SMILES: O=S(=O)(c1ccc2c(c1)OCCO2)N1CCC(c2nc(O)c3nnn(Cc4cccc(F)c4)c3n2)CC1
- CC50 [10]: 31.9 µM (active)

SMILES: CN(Cc1ccccc1)C(=O)c1cccc(NC(=O)Cc2ccc([N+](=O)[O-])cc2)c1
- AC50 [6]: 16.8 µM (active)
- AC50 [7]: > 70 µM (inactive)

SMILES: O=C(Nc1ccc(F)cc1)c1cccnc1
- AC50 (INS1): 14.5 µM (active)

SMILES: O=S(=O)(c1ccccc1F)N1CC[C@@H]2[C@@H](CO)Nc3ccc(C4=CCCCC4)cc3[C@@H]21
- AC50 (Paired box protein Pax-8): 10.5 µM (active)

SMILES: COc1ccc(OC)c(-c2cc(C(=O)N/N=C/c3cc(OC)c(OC)cc3OC)c3ccccc3n2)c1
- EC50 [9]: > 195 µM (not active)

SMILES: C/C(=N\NC1=NCCN1)c1ccc(N)c([N+](=O)[O-])c1
- EC50 [9]: > 195 µM (not active)

SMILES: O=C(O)COc1ccccc1/C=N/NC(=O)c1ccc2c(c1)OCCO2
- EC50 [9]: > 195 µM (not active)

SMILES: Cn1/c(=N/C(=O)C2CCCCC2)sc2cc([N+](=O)[O-])ccc21
- CC50 [10]: > 50 µM (active)
